Measured values reported in ChEMBL document CHEMBL5728996 (2022).

Assays:
Adenosine receptor A1 = target: T1, Adenosine receptor A1 (Homo sapiens, UniProt P30542); assay: (§1) Activity Assay: Compounds (Adenosine Receptor modulators) and activity assay.
T1 sequence (P30542 whole entry): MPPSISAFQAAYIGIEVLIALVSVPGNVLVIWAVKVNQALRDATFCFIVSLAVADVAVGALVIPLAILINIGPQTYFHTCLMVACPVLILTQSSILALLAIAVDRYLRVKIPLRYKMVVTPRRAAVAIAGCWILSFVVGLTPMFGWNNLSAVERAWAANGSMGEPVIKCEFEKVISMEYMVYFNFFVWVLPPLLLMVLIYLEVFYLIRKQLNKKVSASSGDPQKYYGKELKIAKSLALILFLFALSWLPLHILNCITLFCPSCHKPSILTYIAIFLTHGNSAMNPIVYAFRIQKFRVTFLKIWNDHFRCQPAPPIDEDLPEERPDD

Adenosine receptor A3 = target: T2, Adenosine receptor A3 (Homo sapiens, UniProt P0DMS8); assay: as §1
T2 sequence (P0DMS8 whole entry): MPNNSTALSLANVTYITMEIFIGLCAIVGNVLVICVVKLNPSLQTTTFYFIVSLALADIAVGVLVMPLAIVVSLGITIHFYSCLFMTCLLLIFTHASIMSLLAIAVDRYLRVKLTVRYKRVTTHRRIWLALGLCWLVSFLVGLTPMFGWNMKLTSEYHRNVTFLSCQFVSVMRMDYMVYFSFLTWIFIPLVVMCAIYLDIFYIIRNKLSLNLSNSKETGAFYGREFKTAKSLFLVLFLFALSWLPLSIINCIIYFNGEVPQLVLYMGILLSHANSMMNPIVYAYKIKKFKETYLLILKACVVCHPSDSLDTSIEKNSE

Adenosine receptor A2b = target: T3, Adenosine receptor A2b (Homo sapiens, UniProt P29275); assay: as §1
T3 sequence (P29275 whole entry): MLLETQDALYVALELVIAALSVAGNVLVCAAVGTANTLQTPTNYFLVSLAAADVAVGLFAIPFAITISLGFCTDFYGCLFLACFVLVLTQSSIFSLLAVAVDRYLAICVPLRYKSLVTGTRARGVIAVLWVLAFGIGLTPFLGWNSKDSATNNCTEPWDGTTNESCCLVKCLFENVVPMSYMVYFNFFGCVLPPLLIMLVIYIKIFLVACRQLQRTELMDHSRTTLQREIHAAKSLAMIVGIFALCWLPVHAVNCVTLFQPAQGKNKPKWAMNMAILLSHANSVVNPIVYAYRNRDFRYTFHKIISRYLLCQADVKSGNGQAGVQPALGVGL

Adenosine receptor A2a = Adenosine receptor A2a (Homo sapiens, UniProt P29274); assay: as §1; assay type: single protein
Sequence of Adenosine receptor A2a (P29274 whole entry): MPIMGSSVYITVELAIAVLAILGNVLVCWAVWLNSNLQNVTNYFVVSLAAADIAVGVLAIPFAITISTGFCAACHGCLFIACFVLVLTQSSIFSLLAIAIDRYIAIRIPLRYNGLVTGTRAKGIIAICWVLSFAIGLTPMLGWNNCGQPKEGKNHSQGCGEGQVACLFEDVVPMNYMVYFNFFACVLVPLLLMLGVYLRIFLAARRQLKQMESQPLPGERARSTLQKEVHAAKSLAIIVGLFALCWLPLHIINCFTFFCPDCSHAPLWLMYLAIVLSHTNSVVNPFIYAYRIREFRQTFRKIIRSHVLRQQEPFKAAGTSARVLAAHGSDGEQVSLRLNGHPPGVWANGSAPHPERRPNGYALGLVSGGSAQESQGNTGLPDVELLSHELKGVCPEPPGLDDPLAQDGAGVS

IC50 (Adenosine receptor A1) | IC50 (Adenosine receptor A3) | IC50 (Adenosine receptor A2b) | IC50 (Adenosine receptor A2a) | SMILES
> 500 nM | > 500 nM |  |  | COc1ccc(CNC(=O)c2nc(NCc3cncc(F)c3)nc3ccsc23)cn1
> 500 nM | > 500 nM |  | > 500 nM | C[C@H](Nc1nc(C(=O)N2CC(CN)C2)c2sccc2n1)c1cncc(F)c1
> 500 nM | > 500 nM |  | > 500 nM | C[C@H](Nc1nc(C(=O)N2CC(N)C2)c2sccc2n1)c1cncc(F)c1
> 500 nM | > 500 nM |  | > 500 nM | CC(=O)Nc1ccc(CCNC(=O)c2nc(N[C@@H](C)c3cncc(F)c3)nc3ccsc23)cc1
> 500 nM | > 500 nM |  |  | C[C@H](Nc1nc(C(=O)NCCO)c2sccc2n1)c1cccnc1
 |  | < 10 nM |  | C[C@H](Nc1nc(C(=O)NCCc2ccccc2O)c2sccc2n1)c1cncc(F)c1
> 500 nM |  |  | > 500 nM | CC(=O)Nc1ccc(CCNC(=O)c2nc(N[C@@H](C)c3cccnc3)nc3cc(C)sc23)cc1

Continued, compound first:

SMILES | IC50 (Adenosine receptor A1) | IC50 (Adenosine receptor A3) | IC50 (Adenosine receptor A2b) | IC50 (Adenosine receptor A2a)
C[C@H](Nc1nc(C(=O)N[C@H]2CC[C@@H](O)C2)c2sccc2n1)c1ccccn1 | > 500 nM | > 500 nM | < 10 nM | 
O=C(c1nc(NCc2ccc(F)cn2)nc2ccsc12)N1CC[C@H](O)C1 |  |  | > 500 nM | > 500 nM
C[C@H](Nc1nc(C(=O)N2CC[C@@H](S(C)(=O)=O)C2)c2sccc2n1)c1ccccn1 |  |  |  | > 500 nM
COCCN1CCC(CNC(=O)c2nc(N[C@@H](C)c3ccccn3)nc3ccsc23)CC1 |  |  | > 500 nM | > 500 nM
CCC(Nc1nc(C(=O)NCc2ccc(OC)nc2)c2sccc2n1)c1cccnc1 (configuration not stated) |  |  | > 500 nM | 
CC(C)(C)OC(=O)N1CCC[C@@H]1CNC(=O)c1nc(NCc2cncc(F)c2)nc2ccsc12 |  |  | > 500 nM | > 500 nM
O=C(c1nc(NCc2cncc(F)c2)nc2ccsc12)N1CCCC1 | > 500 nM | > 500 nM | < 10 nM | 
C[C@H](Nc1nc(C(=O)N2CC[C@@H](NC(=O)OC(C)(C)C)C2)c2sccc2n1)c1ccccn1 | > 500 nM | > 500 nM |  | 
